These results are taken from BindingDB's records for doi:10.3109/14756369809021481 (Laboratoire De Chimie Bioorganique, 1998).

Broadly, the IC50 is the concentration at which inhibition is half-maximal. What is called Ki is a dissociation constant, usually derived from enzyme kinetics or from competition with a known ligand. A lower Ki goes with tighter binding.

The structures appear in SMILES notation.

This test deals with S-adenosylmethionine synthase isoform type-2 (Rattus norvegicus, UniProt P18298). Put plainly: Inhibition Assay. The settings on record: pH 7.5; 37 °C. The procedure: AdoMet synthetase activity was measured by a radioactive assay using (14C-methyl)-L-methionine as described by Sullivan and Hoffman with minor modification to give better efficiency in the separation of labelled residual methionine and AdoMet formed.
Sequence of S-adenosylmethionine synthase isoform type-2 (P18298 whole entry, canonical isoform): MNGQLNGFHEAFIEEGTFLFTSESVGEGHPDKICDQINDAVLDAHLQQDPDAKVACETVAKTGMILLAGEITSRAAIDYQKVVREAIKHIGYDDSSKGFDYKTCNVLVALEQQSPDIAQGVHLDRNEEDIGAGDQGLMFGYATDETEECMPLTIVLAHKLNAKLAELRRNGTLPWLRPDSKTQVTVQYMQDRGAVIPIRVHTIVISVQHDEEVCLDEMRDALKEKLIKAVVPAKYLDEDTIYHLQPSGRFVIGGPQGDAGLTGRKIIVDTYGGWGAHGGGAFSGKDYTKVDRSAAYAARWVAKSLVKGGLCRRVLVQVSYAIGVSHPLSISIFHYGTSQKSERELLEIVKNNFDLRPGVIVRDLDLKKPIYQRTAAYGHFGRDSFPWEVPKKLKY
In turn, `N[C@@H](C[C@@H]1CS1)C(=O)O` [Epithioamino acid analogue, II(a)] had an IC50 of 140 µM and a Ki of 100 µM.

For `C[C@H]1O[C@H]1C[C@H](N)C(=O)O` [Epoxy analogue, I(b)], half-maximal inhibition (IC50) required 100 µM and affinity was put at a Ki of 61 µM.

With `C[C@@H]1O[C@H]1C[C@H](N)C(=O)O` [Epoxy analogue, I(c)], the half-inhibitory concentration (IC50) came to 110 µM and the Ki came to 105 µM.

In the case of `N[C@@H](C[C@H]1CO1)C(=O)O` [Epoxy analogue, I(a)], the 50% inhibitory concentration (IC50) was determined as 50 µM and the affinity corresponds to a Ki of 7 µM.

Turning to `C[C@H]1S[C@@H]1C[C@H](N)C(=O)O` [Epithioamino acid analogue, II(b)], the IC50 is 300 µM and the Ki was found to be 140 µM.

Regarding `C[C@@H]1S[C@@H]1C[C@H](N)C(=O)O` [Epithioamino acid analogue, II(c)], it took 400 µM to reach half-maximal inhibition (IC50) and affinity was put at a Ki of 140 µM.
